Experiments:
[1] = target: T1, Decaprenyl diphosphate synthase (Mycobacterium tuberculosis (strain CDC 1551 / Oshkosh), UniProt P9WFF6); test: DPPS Inhibition (cis FPP based) Assay; settings: pH 7.5
T1 sequence (P9WFF6 whole entry): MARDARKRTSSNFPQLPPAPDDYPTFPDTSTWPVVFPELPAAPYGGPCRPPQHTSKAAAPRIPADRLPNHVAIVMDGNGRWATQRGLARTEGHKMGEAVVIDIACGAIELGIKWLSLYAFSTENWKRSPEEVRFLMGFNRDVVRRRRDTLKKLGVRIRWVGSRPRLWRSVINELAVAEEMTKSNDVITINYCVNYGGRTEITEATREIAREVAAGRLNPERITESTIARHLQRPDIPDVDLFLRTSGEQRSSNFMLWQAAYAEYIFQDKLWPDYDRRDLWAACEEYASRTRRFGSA
Source text: We screened an in-house library of 19 compounds using cis-FPP as substrate.

[2] = target: T1, Decaprenyl diphosphate synthase; test: DPPS Inhibition (GPP based) Assay; settings: pH 7.5
Source text: We screened an in-house library of 43 compounds using GPP as substrate.

[3] = target: T1, Decaprenyl diphosphate synthase; test: DPPS Inhibition (trans FPP based) Assay; settings: pH 7.5
Source text: We screened an in-house library of 53 compounds using trans-FPP as substrate.

[4] = target: T2, Tuberculosinyl adenosine transferase (Mycobacterium tuberculosis (strain CDC 1551 / Oshkosh), UniProt P9WJ60); test: Rv3378c Inhibition Assay
T2 sequence (P9WJ60 whole entry): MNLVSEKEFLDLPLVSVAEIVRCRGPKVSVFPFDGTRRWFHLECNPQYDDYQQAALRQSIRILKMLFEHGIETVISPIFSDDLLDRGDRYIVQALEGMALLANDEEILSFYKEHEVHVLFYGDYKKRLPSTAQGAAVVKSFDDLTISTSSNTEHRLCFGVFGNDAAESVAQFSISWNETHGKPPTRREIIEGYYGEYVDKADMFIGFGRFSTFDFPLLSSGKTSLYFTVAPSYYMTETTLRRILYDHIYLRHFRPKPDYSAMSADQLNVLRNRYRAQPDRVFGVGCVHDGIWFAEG
Procedure: For inhibition assay of Rv3378c, using tuberculosinyl diphosphate and adenosine as substrates, a mixture of 100 µM TPP, 100 µM adenosine,75 µg/mL Rv3378c, and inhibitors in the assay buffer (25 mM Tris-HCl, 1 mM MgCl2, 0.01% Triton-X-100) was incubated for 2 h at 37 °C.

Molecule `CCCCCCCCOc1cccc(C(=O)Nc2cccc(C(=O)O)c2C(O)O)c1` [BPH-1461] has an IC50 [1] of 55000 nM and an IC50 [2] of 164 nM.
Molecule `CCCCCCCCOc1cccc(COc2ccc(S(=O)(=O)N3CCOCC3)cc2C(=O)O)c1` [BPH-1158] has an IC50 [1] of 83000 nM and an IC50 [2] of 1400 nM.
`CCCCCCCCOc1cccc(C(=O)Nc2cc(OC)c(OC)cc2C(=O)O)c1` [BPH-1294] showed an IC50 [1] of 62000 nM and an IC50 [2] of 205 nM.
`O=P(O)(O)C(O)(Cc1cccc(-c2cccc3c2oc2ccccc23)c1)P(=O)(O)O` [[1-hydroxy-2-(3-{8-oxatricyclo[7.4.0.0^{2,7}]trideca-1(13),2,4,6,9,11-hexaen-6-yl}phenyl)-1-phosphonoethyl]phosphonic acid] gave an IC50 [3] of 19000 nM and an IC50 [4] of 210 nM.
Molecule `O=C(O)c1ccccc1SCc1cccc(Oc2ccccc2)c1` [BPH-1125] has an IC50 [1] of 30000 nM and an IC50 [2] of 1200 nM.
In the case of `O=C(Nc1cccc(C2=NCCN2)c1)c1ccc(-c2ccc(C(=O)Nc3cccc(C4=NCCN4)c3)cc2)cc1` [50460, 14], the IC50 [4] is reported as 96000 nM.
With `O=P(O)(O)C(O)(c1cccc(-c2cccc(-c3ccccc3)c2)c1)P(=O)(O)O` [BPH-640] the IC50 [1] was 610 nM and the IC50 [2] was 410 nM.
Work on `C(=C\c1cc2ccc(C3=NCCN3)cc2[nH]1)/c1cc2ccc(C3=NCCN3)cc2[nH]1` [BPH-1417] yielded an IC50 [1] of 20000 nM, an IC50 [2] of 490 nM and an IC50 [4] of 660 nM.
Work on `CCCCCCCCOc1ccc(F)c(C(=O)Nc2ccc(F)cc2C(=O)O)c1` [BPH-1485] yielded an IC50 [1] of 20000 nM and an IC50 [2] of 308 nM.
`C=CCC(/C=C/C(=O)Nc1ccc(F)cc1C(=O)O)OCCCCCCCC` (configuration not stated) [BPH-1463] gave an IC50 [1] of 90000 nM and an IC50 [2] of 31 nM.
For `CCCCCCCCOc1cccc(C(=O)Nc2ccc(Br)cc2C(=O)O)c1` [BPH-1264], the IC50 [1] was 11000 nM and the IC50 [2] was 68 nM.

Source: BindingDB's records for doi:10.1111/cbdd.12463 (University of California San Diego, 2015)
